Test results from patent US20080032989A1, “Method of treating inflammatory diseases using tyroskine kinase inhibitors” (priority 2006, published 2008).
“And” between values parts separate entries of the source, which are not always exact repeats. Equal values may be shown once. “Also recorded” adds a separate entry of the source. Read-outs that look alike come from different tables or passages of the source.

Experiments:
[1] = system: PDGFR; details: cited from earlier work
[2] = system: collagen-induced arthritis (CIA) in DBA/1 mice; details: for severity of CIA (scores, paw measurements), direct comparison study: CGP53716 daily i.p. from 1 day prior to induction
[3] = biological target: T1, c-Kit (Homo sapiens, UniProt P10721); details: Table 5; read-out: Kit Inhibitory Profile (IC50); cited from earlier work
[4] = system: EGFR, FGFR, insulin receptors, Src, Lyn, PKA and PKC; details: clinically relevant concentrations; cited from earlier work
[5] = system: PDGFR
[6] = biological target: T1, c-Kit; assay: In vitro c-Kit phosphorylation assay (HTScan c-Kit Kinase Assay); format: biochemical; parameters: purchased Cell Signaling; details: 30 minutes, time-resolved fluorescence, FIG. 11A
[7] = I.P. 100 mg/kg, cited from earlier work
[8] = system: FGFR; details: literature, cited from earlier work
[9] = biological target: Abl (Homo sapiens, UniProt P00519); details: literature; cited from earlier work
[10] = system: established collagen-induced arthritis (CIA) in DBA/1 mice; assay: Treatment of established collagen-induced arthritis (CIA); format: in vivo, mouse
[11] = system: synovial fluid monocytes; assay: M-CSF-induced differentiation of RA synovial fluid monocytes to macrophages (morphology); format: cell-based, human; details: 5 μM imatinib with M-CSF, 72 hours
From the text: H. Macrophage isolation and stimulation. […]. […]

[12] = biological target: T2, c-Kit (Mus musculus, UniProt P05532); assay: SCF-induced mast cell signaling, immunoblot and RPP lysate array; format: cell-based; details: mast cells
T2 construct: endogenous in cells; host or cells: C1.MC/57.1 mouse mast cell line

[13] = system: autoreactive B cell responses in mice with CIA; assay: Synovial array profiling of serum autoantibodies in CIA mice; format: in vivo, mouse; details: 100 mg/kg imatinib, day 49 sera
Experimental: M. Synovial array analysis. As described (Robinson, W. H., et al., Nat Med 8:295-301, (2002); Hueber, W., et al., Arthritis Rheum 52:2645-2655, (2005)), 500+ peptides and proteins representing autoantigens were printed on SuperEpoxy slides (TeleChem), arrays were incubated with 1:150 dilutions of mouse sera, followed by Cy3-labeled anti-mouse IgG/M antibody (Jackson Immunoresearch), and scanned using a GenePix 4000B scanner. Median feature intensities for each antigen were calculated from the 4-8 duplicate features representing each antigen.
. A robotic microarrayer was used to produce synovial arrays containing a spectrum of proteins and peptides representing candidate autoantigens in RA and CIA (Robinson, W. H., et al., Nat Med 8:295-301, (2002); Hueber, W., et al., Arthritis Rheum 52:2645-2655, (2005)). Arrays were incubated with 1:150 dilutions of sera, autoantibody binding detected with Cy3-labeled anti-mouse IgG/M, and arrays scanned and median fluorescence for each antigen determined. […]. Cluster and TreeView software was applied to order and display the array reactivity as a heatmap. […]

[14] = system: splenocytes expressing CII-specific TCR
[15] = system: B cells from naïve DBA/1 mice
[16] = system: C1.MC/57.1 mast cells; assay: SCF-stimulated mast cell cytokine production; details: 100 ng/mL SCF, 48 hrs, imatinib 1 μM and 5 μM
[17] = system: EAE in C57B/6 mice; assay: Experimental autoimmune encephalomyelitis (EAE); format: in vivo, mouse; details: 100 mg/kg twice daily vs PBS-vehicle
[18] = system: anti-CII T cells; details: mouse, 24 h
[19] = mice, cited from earlier work; for trough plasma level: 15 hours after dosing
[20] = biological target: EGFR (Homo sapiens, UniProt P00533); details: Table 7; cited from earlier work
[21] = rats, oral 50 mg/kg; cited from earlier work
[22] = read-out: IC50 for PDGFbb-induced FLS proliferation (PDGFR), FLS from human RA patient, H3-thymidine incorporation, FIG. 11B
[23] = Table 5, read-out: PDGFR Inhibitory Profile (IC50)
[24] = 0-5 μM imatinib, SCF 10 minutes, immunoblot
[25] = CII-specific (anti-CII) TCR transgenic, 1 μM
[26] = CII-specific (anti-CII) TCR transgenic, 5 μM
[27] = CII-specific (anti-CII) TCR transgenic, 10 μM
[28] = CII-specific TCR transgenic, 1 μM
[29] = CII-specific TCR transgenic, 5 μM
[30] = CII-specific TCR transgenic, 10 μM
[31] = Table 7, read-out: PDGFR Inhibitory profile (with IC50s when available)

T2 sequence (P05532 25-979): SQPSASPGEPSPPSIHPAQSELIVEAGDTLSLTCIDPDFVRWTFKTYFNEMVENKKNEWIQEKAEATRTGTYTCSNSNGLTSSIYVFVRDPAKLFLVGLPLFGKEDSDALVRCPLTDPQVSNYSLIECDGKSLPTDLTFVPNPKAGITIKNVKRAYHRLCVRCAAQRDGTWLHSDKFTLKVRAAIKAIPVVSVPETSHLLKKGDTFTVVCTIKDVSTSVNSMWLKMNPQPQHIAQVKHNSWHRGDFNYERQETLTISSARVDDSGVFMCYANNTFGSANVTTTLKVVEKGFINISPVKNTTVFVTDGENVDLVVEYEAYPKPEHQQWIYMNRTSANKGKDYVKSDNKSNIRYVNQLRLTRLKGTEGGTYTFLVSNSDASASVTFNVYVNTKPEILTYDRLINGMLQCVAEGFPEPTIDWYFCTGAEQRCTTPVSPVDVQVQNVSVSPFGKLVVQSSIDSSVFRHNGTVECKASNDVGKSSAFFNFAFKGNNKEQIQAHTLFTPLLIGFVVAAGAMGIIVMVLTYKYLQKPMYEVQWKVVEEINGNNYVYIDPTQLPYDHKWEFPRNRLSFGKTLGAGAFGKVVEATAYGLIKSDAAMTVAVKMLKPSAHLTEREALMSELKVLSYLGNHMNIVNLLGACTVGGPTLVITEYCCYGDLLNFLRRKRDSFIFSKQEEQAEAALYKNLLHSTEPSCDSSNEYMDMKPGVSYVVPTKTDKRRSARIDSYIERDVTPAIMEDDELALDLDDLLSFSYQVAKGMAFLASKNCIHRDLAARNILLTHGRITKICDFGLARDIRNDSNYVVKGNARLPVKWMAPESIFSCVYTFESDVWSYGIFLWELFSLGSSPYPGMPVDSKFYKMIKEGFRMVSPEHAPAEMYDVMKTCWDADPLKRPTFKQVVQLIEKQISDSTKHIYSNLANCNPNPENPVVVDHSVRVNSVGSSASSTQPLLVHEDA
EGFR, sequence (P00533 25-1210, species assumed): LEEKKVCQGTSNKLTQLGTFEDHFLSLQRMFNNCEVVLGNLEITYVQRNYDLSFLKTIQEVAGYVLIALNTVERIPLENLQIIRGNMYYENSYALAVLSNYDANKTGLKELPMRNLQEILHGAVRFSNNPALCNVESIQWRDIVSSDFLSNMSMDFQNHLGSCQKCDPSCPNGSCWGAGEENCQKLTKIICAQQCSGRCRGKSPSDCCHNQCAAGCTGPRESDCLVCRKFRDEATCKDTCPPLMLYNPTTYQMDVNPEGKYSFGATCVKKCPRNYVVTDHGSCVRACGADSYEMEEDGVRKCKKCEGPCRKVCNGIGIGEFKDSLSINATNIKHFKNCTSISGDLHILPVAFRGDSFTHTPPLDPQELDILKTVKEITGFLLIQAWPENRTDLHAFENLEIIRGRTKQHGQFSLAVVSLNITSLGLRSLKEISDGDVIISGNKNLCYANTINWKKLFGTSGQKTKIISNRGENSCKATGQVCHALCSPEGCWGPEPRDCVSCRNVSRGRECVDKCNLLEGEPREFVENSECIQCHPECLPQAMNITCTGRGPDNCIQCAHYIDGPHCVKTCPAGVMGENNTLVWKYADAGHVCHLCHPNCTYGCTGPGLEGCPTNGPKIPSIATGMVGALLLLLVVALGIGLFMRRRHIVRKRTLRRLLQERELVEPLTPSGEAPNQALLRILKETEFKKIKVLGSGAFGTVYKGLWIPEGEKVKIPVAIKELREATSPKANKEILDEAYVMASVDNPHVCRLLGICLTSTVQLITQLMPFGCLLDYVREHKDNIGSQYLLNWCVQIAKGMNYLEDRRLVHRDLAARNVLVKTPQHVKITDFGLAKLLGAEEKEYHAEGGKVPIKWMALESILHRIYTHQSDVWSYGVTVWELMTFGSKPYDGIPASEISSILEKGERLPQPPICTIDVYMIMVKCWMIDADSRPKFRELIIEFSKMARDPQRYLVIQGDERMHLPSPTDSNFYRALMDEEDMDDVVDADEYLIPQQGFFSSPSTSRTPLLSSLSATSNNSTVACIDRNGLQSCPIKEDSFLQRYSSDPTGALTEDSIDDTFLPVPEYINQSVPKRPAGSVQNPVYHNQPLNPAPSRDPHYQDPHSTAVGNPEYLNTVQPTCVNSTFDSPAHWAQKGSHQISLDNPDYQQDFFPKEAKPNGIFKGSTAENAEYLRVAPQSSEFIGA
Abl, sequence (P00519 whole entry, species assumed): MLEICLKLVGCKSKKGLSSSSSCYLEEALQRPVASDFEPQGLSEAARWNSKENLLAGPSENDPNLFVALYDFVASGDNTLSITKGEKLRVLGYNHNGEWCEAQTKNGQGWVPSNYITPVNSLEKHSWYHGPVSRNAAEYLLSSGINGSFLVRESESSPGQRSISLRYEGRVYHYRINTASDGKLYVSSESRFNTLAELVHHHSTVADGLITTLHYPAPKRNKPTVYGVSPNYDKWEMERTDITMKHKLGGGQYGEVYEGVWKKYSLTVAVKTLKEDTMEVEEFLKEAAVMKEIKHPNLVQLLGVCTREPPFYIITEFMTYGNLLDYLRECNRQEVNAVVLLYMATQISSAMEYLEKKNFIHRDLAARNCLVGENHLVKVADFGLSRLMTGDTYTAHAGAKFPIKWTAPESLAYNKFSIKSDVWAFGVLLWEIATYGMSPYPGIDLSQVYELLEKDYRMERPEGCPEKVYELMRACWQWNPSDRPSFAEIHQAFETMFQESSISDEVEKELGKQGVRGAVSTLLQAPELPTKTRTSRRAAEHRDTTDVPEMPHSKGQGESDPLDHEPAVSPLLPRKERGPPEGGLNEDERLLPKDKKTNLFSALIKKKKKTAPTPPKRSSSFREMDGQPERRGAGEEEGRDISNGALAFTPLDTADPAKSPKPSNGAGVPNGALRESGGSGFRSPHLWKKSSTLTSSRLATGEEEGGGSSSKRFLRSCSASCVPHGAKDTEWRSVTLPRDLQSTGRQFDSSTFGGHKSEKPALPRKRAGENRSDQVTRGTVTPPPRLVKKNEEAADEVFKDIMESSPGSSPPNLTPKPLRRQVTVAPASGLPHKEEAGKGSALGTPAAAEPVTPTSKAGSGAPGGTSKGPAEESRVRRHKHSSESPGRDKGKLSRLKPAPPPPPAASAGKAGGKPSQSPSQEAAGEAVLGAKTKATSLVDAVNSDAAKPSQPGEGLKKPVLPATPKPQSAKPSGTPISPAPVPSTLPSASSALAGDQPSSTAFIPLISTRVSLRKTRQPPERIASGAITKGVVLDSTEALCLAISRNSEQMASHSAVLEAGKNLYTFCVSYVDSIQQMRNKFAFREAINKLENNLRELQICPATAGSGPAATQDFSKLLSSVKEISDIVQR

CC1(C)CNc2cc(NC(=O)c3cccnc3NCc3ccncc3)ccc21 [AMG 706]
PDGFR Inhibitory profile (with IC50s when available) ([1]; Table 7): potent

CC(C)c1c(C(=O)Nc2ccccc2)c(-c2ccccc2)c(-c2ccc(F)cc2)n1CC[C@@H](O)C[C@@H](O)CC(=O)O [Atorvastatin]
clinical scores of CIA ([2]; atorvastatin alone, 1.25 to 20 mg/kg, FIG. 16B): not effective at decreasing the clinical scores of CIA

Cc1ccc(NC(=O)c2ccccc2)cc1Nc1nccc(-c2cccnc2)n1 [CGP53716]
IC50 [3]: < 1000 nM
inhibition of other kinases including EGFR, FGFR, insulin receptors, Src, Lyn, PKA and PKC [4]: does not inhibit other kinases at clinically relevant concentrations
IC50 [6]: 2 nM
severity of CIA (scores, paw measurements), direct comparison study ([2]; FIG. 13C-13D): statistically significant reductions in the severity of CIA
efficacy at preventing and treating CIA relative to imatinib ([2]; FIG. 13C-13D): nearly as effective as imatinib
plasma level ([7]; 8 hours after dosing): 1600 nM
plasma level ([7]; 24 hours after dosing): 1900 nM
IC50 [8]: 1100 nM
IC50 [9]: 600 nM

COc1cc2c(Oc3ccc4[nH]c(C)cc4c3F)ncnc2cc1OCCCN1CCCC1 [Cediranib]
PDGFR Inhibitory profile (with IC50s when available) ([1]; Table 7): potent?

COc1ccc(COc2ccc(Cc3cnc(N)nc3N)cc2OC)cc1 [GW2580]
IC50 [5, 22]: 4300 nM and 4350 nM
IC50 ([5]; read-out: PDGFR Inhibitory Profile (IC50), Table 5, value referenced to FIG. 11): 4300 nM
severity of established CIA (mean visual arthritis score, paw thickness) ([10]; 50 mg/kg for 5 days vs vehicle): highly effective at treating established collagen-induced arthritis; also recorded: reduced the severity of arthritis

Cc1ccc(NC(=O)c2ccc(CN3CCN(C)CC3)cc2)cc1Nc1nccc(-c2cccnc2)n1 [Imatinib]
differentiation of synovial fluid monocytes into macrophages (morphology) [11]: blocked the differentiation of synovial fluid monocytes from human RA patients into macrophages
SCF-induced phosphorylation of c-Kit [12, 24]: potently inhibited SCF-induced phosphorylation of c-Kit
phosphorylation of downstream Akt (Ser 473) [12, 24]: corresponding reduction in phosphorylation of downstream Akt (Ser 473)
SCF-induced activation of kinases downstream of c-Kit (ERK, JNK, p38), RPP array ([12]; 1 and 5 μM imatinib): inhibited SCF-induced activation of diverse protein tyrosine kinases downstream of c-Kit
expansion (epitope spreading) of autoreactive B cell responses [13]: reduced expansion of autoreactive B cell responses
CIA efficacy compared to PBS vehicle-control ([2]; 15 mg/kg imatinib, FIG. 16A): relatively little efficacy
severity of CIA (mean visual arthritis score, mean paw thickness) ([2]; 33 or 100 mg/kg orally twice-daily from 1 day prior to induction, p<0.01 after day 38): significant reductions in the severity of CIA
incidence of CIA ([2]; 33 or 100 mg/kg orally twice-daily, day 49): reduced the incidence of CIA
severity of CIA (scores, paw measurements), direct comparison study ([2]; FIG. 13C-13D): statistically significant reductions in the severity of CIA
histopathology: synovitis, pannus, and erosion scores ([2]; CIA prevention study, 33 and 100 mg/kg, p<0.01 synovitis and erosion, p<0.05 pannus): statistically significant reductions in synovitis, pannus, and erosion scores
production of IFN-γ and TNFα by CII-stimulated TCR transgenic T cells ([14]; CII 20 μg/mL, 3.3 μM imatinib): moderate reduction
production of IFN-gamma, IL-4, and TNFα by CII-stimulated TCR transgenic T cells ([14]; CII 20 μg/mL, 10 μM imatinib): further reduced production
anti-CII T cell production of IL-2 ([14]; any imatinib concentration tested): not significantly reduced
IgM production by LPS-stimulated B cells ([15]; imatinib 1 μM): mildly reduced
IgM production by LPS-stimulated B cells ([15]; imatinib 10 μM): most significant reduction
mast cell production of TNFα, GM-CSF, and IL-6 [16]: dramatically reduced mast cell production of TNFα, GM-CSF, and IL-6
progression of established arthritis (visual score, mean paw thickness) ([10]; 33 and 100 mg/kg, p<0.05 after 10 days of treatment): inhibited the progression of established arthritis
histopathology: synovitis, pannus, and erosion scores ([10]; treatment of established CIA, 33 and 100 mg/kg, p<0.05): statistically significant reductions in synovitis, pannus, and erosion scores
onset and severity of EAE [17]: a delay in the onset and reduced severity of EAE
Early apoptosis (PI− AnnV+) [18, 25]: 3.8%
Late apoptosis (PI+ AnnV+) [18, 25]: 0.6%
Early apoptosis (PI− AnnV+) [18, 26]: 5.2%
Late apoptosis (PI+ AnnV+) [18, 26]: 1.2%
Early apoptosis (PI− AnnV+) [18, 27]: 6.2%
Late apoptosis (PI+ AnnV+) [18, 27]: 0.9%
Early apoptosis (PI− AnnV+) [18, 28]: 4.6%
Late apoptosis (PI+ AnnV+) [18, 28]: 1.1%
Live cells (PI− AnnV−) [18, 28]: 95.5%
Early apoptosis (PI− AnnV+) [18, 29]: 5.3%
Late apoptosis (PI+ AnnV+) [18, 29]: 0.7%
Live cells (PI− AnnV−) [18, 29]: 93.6%
Early apoptosis (PI− AnnV+) [18, 30]: 6.6%
Late apoptosis (PI+ AnnV+) [18, 30]: 0.9%
Live cells (PI− AnnV−) [18, 30]: 93.7%
Early apoptosis (PI− AnnV+) ([18]; anti-CII TCR transgenic, 1 μM): 3.4%
Late apoptosis (PI+ AnnV+) ([18]; anti-CII TCR transgenic, 1 μM): 0.5%
Early apoptosis (PI− AnnV+) ([18]; anti-CII TCR transgenic, 5 μM): 5.9%
Late apoptosis (PI+ AnnV+) ([18]; anti-CII TCR transgenic, 5 μM): 0.8%
Early apoptosis (PI− AnnV+) ([18]; anti-CII TCR transgenic, 10 μM): 6.1%
Late apoptosis (PI+ AnnV+) ([18]; anti-CII TCR transgenic, 10 μM): 0.9%

Cc1cn(-c2cc(NC(=O)c3ccc(C)c(Nc4nccc(-c5cccnc5)n4)c3)cc(C(F)(F)F)c2)cn1 [Nilotinib]
IC50 [1, 31]: 1 nM

Cn1c(=O)c(-c2c(Cl)cccc2Cl)cc2cnc(Nc3cccc(CO)c3)nc21 [PD166326]
trough plasma level ([19]; 25 mg/kg): approximately 0.005 μM
peak plasma level ([19]; 25 mg/kg): 0.026 µM
trough plasma level ([19]; 50 mg/kg): ~0.018 µM
peak plasma level ([19]; 50 mg/kg): 0.098 µM

C[C@@H](Nc1ncnc2[nH]c(-c3ccc(O)cc3)cc12)c1ccccc1 [PKI-166]
EGFR Inhibitory profile (with IC50s when available) [20]: potent

Cc1[nH]c(/C=C2\C(=O)Nc3ccccc32)c(C)c1CCC(=O)O [SU6668]
IC50 [1, 31]: 10 nM

Cc1[nH]c(/C=C2\C(=O)Nc3ccc(Br)cc32)c(C)c1CCC(=O)O [SU9518]
IC50 [1, 23]: 50 nM
IC50 ([1]; literature, read-out: IC50 PDGFR (PDGFRα/β)): 53 nM
peak plasma level [21]: 1.76 µM
plasma level 8 hours after dosing [21]: above 1 μM
IC50 ([8]; unit inferred): 4400 nM

CNC(=O)c1cc(Oc2ccc(NC(=O)Nc3ccc(Cl)c(C(F)(F)F)c3)cc2)ccn1 [Sorafenib]
PDGFR Inhibitory profile (with IC50s when available) ([1]; Table 6): potent
